Regarding `CCc1cc(NCc2ccc(-c3ccccc3C#N)cc2)n2nccc2n1`, the melting point was in the range of 230 to 233 °C.

`COc1cc(N)c(Cl)cc1-c1nc(-c2cccnc2)c(C)[nH]1` registered a melting point of 178 to 180 °C.

`OCC1CC(F)C(n2cnc3c(Cl)ncnc32)O1` (centres undefined) came in with a melting point of 157 to 158 °C.

On to `COC(=O)c1cc(Cl)ccc1NC(=O)c1cc(OC)c(OC)c(OC)c1`, for which the melting point was 179 to 180 °C.

`CC(Oc1ccc(-c2ccc(S(N)(=O)=O)c(F)c2)cc1)C(O)CCc1cccnc1` (centres undefined) came in with a melting point of 178 to 180 °C.

Compound `c1ccc(NC2=NC(Nc3ccccc3)(c3ccccc3)C(c3ccccc3)=N2)cc1` (centres undefined) came in with a melting point of 153 to 156 °C.

`CSc1cc2cc(C)ccc2cc1C=Cc1cc2ccc(C)cc2cc1SC` had a melting point of 185 to 186 °C.

The compound `COc1cc2c(c3c1OC(C)(C)C3)C(c1cccc(NC(=O)C3CCC(=O)N3)c1)=NC(C)(C)C2` (centres undefined) registered a melting point of 145 to 147 °C.

`O=C(Nc1ccc(Cl)cc1)NS(=O)(=O)c1ccc2c(c1)CCO2` showed a melting point of 190 to 194 °C.

`O=C(NC1N=C(c2ccccc2F)c2ccccc2NC1=O)c1ccccc1` (racemic): the melting point was in the range of 243 to 244 °C.

For the compound `CC(C)(C)C1=NN(c2ccc(C(=O)O)cc2)C(c2ccccc2)C1` (centres undefined), the melting point was determined as 233 °C.

As for `CCOC(=O)c1c2ccc(Cl)cc2c(-c2ccccc2)n1CCCOS(C)(=O)=O`, the melting point lay within 91 to 92 °C.

`CCCCCCC(C(=O)O)c1cccc(Sc2ccccc2C)c1O` (centres undefined) had a melting point of 90 to 91 °C.

For the compound `O=c1oc2c(c(O)c1-c1ccccc1)CCCC2`, the melting point was found to be 168 °C.

Regarding `Oc1cc(O)c2cc(-c3ccc(F)cc3)oc2c1`, the melting point was 189 to 190 °C.

With `N#Cc1ncc(NCCO)nc1N1CCC(c2ccc(F)cc2)CC1`, the melting point lay in the range of 155 to 158 °C.

`CCOC(=O)C(=O)Nc1ccc(Cl)ccc1=O`: the melting point was 178 to 179 °C.

As for `COc1ccc2c3c1OC1C(=O)CCC4(OC)C(C2)N(C)CCC314` (centres undefined), the melting point was 140 to 142 °C.

`N#Cc1cnn(-c2ccccn2)c1SCc1ccccc1` yielded a melting point of 110 to 115 °C.

Consider `CC(C)(C)OC(=O)C1CCCN1C(=O)NN` (centres undefined), for which the melting point was 83 to 84 °C.

The compound `Cc1ccc(C2=N[C@H](c3ccccc3)CO2)cc1C#CCN(O)C(N)=O` displayed a melting point of 169 to 170 °C.

Take `CC(C)(C)c1ccc(OCC(N)CO)cc1` (centres undefined): the melting point turned out to be 102 °C.

With `CCOC(=O)c1ncoc1-c1cnc(Cl)c(Cl)c1`, the melting point lay in the range of 95 to 98 °C.

For the compound `S=c1nc(-c2ccc(-c3ccccc3)cc2)[nH]n1Cc1ccccc1`, the melting point was 249 to 250 °C.

The compound `CS(=O)(=O)c1ccc(-c2cc(C(=O)O)sc2-c2ccc(F)cc2)cc1` came in with a melting point of 264 °C.

The compound `COc1ccc2c(c1OC)CCCC2c1c[nH]cn1` (centres undefined) displayed a melting point of 160 °C.

For `O=[N+]([O-])c1cc(Cl)cc(O)c1O`, the melting point is 108 to 111 °C.

`Cc1ccc(N2CCC(CCOc3ccc(-c4nc(C(C)C)no4)cc3)CC2)nn1` yielded a melting point of 135 °C.

`CN(C)c1ccc(C2CCCN2S(=O)(=O)c2ccc(Cl)cc2)cc1Cl` (racemic) had a melting point of 103 °C.

As to `Cc1cc(OCc2ccc(-c3ccc(C(F)(F)F)cc3)nn2)ccc1OC(C)(C)C(=O)O`, the melting point lay within 191 to 192 °C.

Regarding `CSc1cc(-c2ccc(C(F)(F)F)cc2)ccc1C#N`, the melting point was 128 to 129 °C.

In turn, `Cc1ccccc1CCc1c(C(C)C)nc(C(C)C)c(CO)c1-c1ccc(F)cc1` gave a melting point of 125 to 126 °C.

`CCCc1nc(C)c2c(=O)[nH]c(C)nn12`: the melting point was in the range of 228 to 231 °C.

`C(=C1CCC2(CC1)OCCO2)c1ccc(OCc2ccccc2)cc1`: the melting point lay in the range of 56 to 57 °C.

`O=C(O)C(=O)c1ccoc1` showed a melting point of 94.2 °C.

`CCc1cc(C)cc(CC)c1NC(=S)NC(C)(C)CC` registered a melting point of 98 to 101 °C.

With `CN(C)C=C1C(=O)N(c2cccc(C#N)c2)c2ccccc21`, the melting point is 140 to 143 °C.

For the compound `CC(C)(C)c1cc(-c2c(C(=O)O)c(=O)oc3cc4c(cc23)CCC4)cc(C(C)(C)C)c1O`, the melting point fell in the range of 256 to 260 °C.

In turn, `CCOC(=O)c1cn(C2CC2)c2c(C)c(N3CCN(Cc4ccccc4)C(C)C3)c(F)c(C)c2c1=O` (centres undefined) came in with a melting point of 128 to 129 °C.

Regarding `CN1CC(CN2CCN(c3ccccc3)CC2)OC1=O` (centres undefined), the melting point lay in the range of 110 to 112 °C.

As for `Cc1ccc(S(=O)(=O)Nc2cccc([N+](=O)[O-])c2N)cc1`, the melting point amounted to 195 °C.

`CCCCCCCCCCCCCCCCCCOc1cc(C(=O)OC)c([N+](=O)[O-])c(C(=O)OC)c1` showed a melting point of 65 to 68 °C.

For the compound `CCn1cc(C(=O)O)c(=O)c2cc(F)c(-c3csc(CN)n3)c(NC)c21`, the melting point was in the range of 194 to 195 °C.

Take `Cc1cc(N)cnc1Oc1cccc(C(C)(C)C)c1`: the melting point is 83 to 84 °C.

`Cc1ccc(Sc2c(O)c3ccc(Cl)cc3[nH]c2=O)cc1C`: the melting point lay within 267 to 268 °C.

As to `C=CCOc1ccc(C[C@@H](NC(C)=O)C(=O)OC)cc1`, the melting point was 90 °C.

Regarding `COCC1CN(c2ccc3cc(O)ccc3c2)C(=O)O1` (centres undefined), the melting point is 190 to 191 °C.

`CC1=C(c2ccccc2)CCC(=O)N1`: the melting point was in the range of 310 to 330 °C.

`CCCCCCCCCCCC(=O)O[C@H](CCCCCCCCCCC)CC(=O)N[C@@H](CO)C(=O)OCc1ccccc1` gave a melting point of 53 to 54 °C.

The compound `Oc1ccc2oc(-c3cc(OCc4ccccc4)c(O)cc3-c3ccccc3)cc2c1` showed a melting point of 186 to 187 °C.

The compound `Cc1ccccc1-c1cn(C)cc(-c2ccccc2Cl)c1=O` registered a melting point of 87 to 91 °C.

Turning to `CC(Cl)(Cl)C(NC(=O)c1ccc(Cl)cc1)NC(=NC#N)Nc1cccnc1Cl` (centres undefined), the melting point is 135 to 137 °C.

In turn, `COC(=O)C(C)(C)OCC#Cc1cc(Cl)ccc1NS(=O)(=O)c1ccc(C(C)C)cc1` displayed a melting point of 65 to 67 °C.

With `CCn1c2ccccc2c2oc(C#N)cc(=O)c21`, the melting point fell in the range of 184 to 185 °C.

Compound `Cc1ccc(C(CO)c2ccc(C(C)C)cc2)c(O)c1C` (centres undefined) returned a melting point of 83 to 84 °C.

On to `CC(C)(C)C(O)c1ccc(CO)cc1` (centres undefined), for which the melting point was in the range of 91 to 95 °C.

Compound `CCN(c1ccc(C(=O)c2ccccc2)cc1N)C1CCCCC1` registered a melting point of 106 to 108 °C.

`COc1ccc2ccc(N3C(=O)c4ccccc4C3OC(=O)COCC(C)C)nc2n1` (centres undefined): the melting point came to 114 °C.

`O=c1ccc2c(-n3cncn3)nccc2[nH]1` showed a melting point of over 300 °C.

On to `CCCCc1nc(SCC)c(C(=O)O)n1Cc1ccc(-c2ccccc2C(=O)O)cc1`, for which the melting point came out at 156 °C.

Take `Cc1cn(C(C)(C)C(=O)N(C)c2ccccc2)nc1-c1ccccc1`: the melting point was in the range of 152 to 154 °C.

`CC(C#Cc1cccc(Oc2ccc(F)cc2)c1)N(O)C(N)=O` (centres undefined) came in with a melting point of 137 to 138 °C.

For the compound `Cc1oc(-c2ccccc2)nc1CCOc1ccc(CC(Nc2ccccc2C(=O)c2ccccc2C(=O)O)C(=O)O)cc1` (centres undefined), the melting point lay within 107 to 110 °C.

`N=C(Nc1ccc(CCNC(=O)C(F)(F)F)cc1)c1cccs1` gave a melting point of 181 to 182 °C.

What is called melting point is the temperature of the solid-liquid transition.
